Assays:
[1] = commercially-available supplements containing urolithin A; cited from earlier work
[2] = test system: CEA-expressing human CRC organoids; assay: Killing of CEA-expressing CRC organoids by CEA-specific CAR T cells; assay type: cell-based; details: 72 h co-culture
[3] = test system: CAR-T cells specific for carcinoembryonic antigen (CEA); assay: UA applied to previously frozen CEA-specific CAR-T cells; assay type: cell-based, human
CD3+ cells = assay: Western blot, fractionation and immunofluorescence of stimulated CD3+ cells; assay type: cell-based
Description: (FIG. 4A) Scheme of CD3+ T-cell activation and analysis for various timepoints in order to investigate mitophagy induction in vitro. (FIG. 4B) Analysis of mitochondrial membrane potential within CD8+ T cells, with TMRM^lo representing cells with low mitochondrial membrane potential. Analysis was performed six hours after stimulation with aCD/aCD28 stimulation beads at the presence of the indicated treatments. N=4 per group, *p < 0.05 by Mann Whitney U test. One of two independent experiments are shown. (FIG. 4C) Representative flow histogram and quantification of lysosome formation in CD8+ cells six hours after in vitro stimulation. MFI shown relative to DMSO controls, n=4. Data are normalised mean ± SD, statistical analysis by two-sided t-test. One out of two independent experiments are shown. (FIG. 4D) Mitotracker Red staining of in vitro stimulated CD8+ cells after 24 hours of Urolithin A (UA25 n=6; UA50 n=6) or vehicle control treatment (DMSO: n=4). A representative flow histogram depicting identification of Mitotracker^hi cells is shown. Data are mean ± SD, statistical analysis was performed by two-sided t-test (*p < 0.05; ***p <0.001; ****p < 0.0001). Experiment was repeated twice. (FIG. 4E) Subset-specific identification of Mitotracker red accumulation after 24 hours of in vitro stimulation either with vehicle control (DMSO) or 50 µM Urolithin A (n=5). Subsets were identified was depicted in the FIGS. 7-9. Data are mean ± SD, statistical analysis by two-sided t-test (* p<0.05, *** p<0.001 and **** p<0.0001). (FIG. 4F) qPCR analysis of various autophagy/mitophagy associated genes of in vitro activated CD3+ cells, 24 h after activation (n=3). Data are ± SEM, statistical analysis was performed by two-sided t-test (*p < 0.05,**p < 0.01). Overall p value is given for the comparison over the entire panel of genes after two-way ANOVA test. (FIG. 4G) Western blot of Parkin protein expression in UA or DMSO (n=3) treated cells after 24 h. Cells were stimulated at the presence of plate-bound aCD3/aCD28 antibodies. […] (FIG. 4H) CD8+ cells from Pink1^-/- mice display deficient mitophagy upon UA treatment in vitro: Lysosome formation in CD8+ of Pink1^-/- mice as assessed by Lysotracker staining 6h post stimulation at the presence of UA or DMSO (n=4). Data are mean ± SD, one out of two independent experiments are shown. (FIG. 4I) CD8+ cells from Pink1^-/- mice display deficient mitophagy upon UA treatment in vitro: Mitotracker red staining of Pink1^-/- CD8+ stimulated in vitro for 48 h, either in the presence of UA or DMSO (n=4). Percentage of Mitotracker^hi CD8+ cells are shown. Data are mean ± SD and acquired via flow cytometry. […] Quantification of TCF1^hi cells among CD8. (FIG. 4N) Quantification of PD1^hi cells among CD8. (FIG. 4O) Quantification of and Tim3^hi cells among CD8. […]

## O=c1oc2cc(O)ccc2c2ccc(O)cc12 [Urolithin A]
[1]
  bioavailability profile: favourable bioavailability profile
  safety: deemed safe
[2]
  killing efficacy of CEA-expressing human CRC organoids: comparable killing efficacy
[3]
  CAR TSCM formation: strongly enhanced CAR TSCM formation
CD3+ cells; 6 h, compared to vehicle controls
  phosphorylation of Stat1: equal phosphorylation of Stat1
CD3+ cells; 24 h
  Parkin protein expression (Western blot): stabilized Parkin protein expression
CD3+ cells; after 6 hours
  b-catenin phosphorylation: marked decrease
CD3+ cells; six hours
  Pgam5 localization (sub-cellular fractionation, immunofluorescence): rapidly released into the cytoplasma
